Legend:
[1] = tested on: MDA-MB-231 triple-negative breast cancer CDX; assay: In-vivo drug efficacy study 2, MDA-MB-231 CDX model; design: species or system BALB/c nude mice
Protocol: (§1) The in-vivo drug efficacy experiments were carried out in BALB/c nude mice implanted subcutaneously with human tumor cell line-derived xenograft (CDX) derived from patients suffering from MDA-MB-231 triple-negative breast cancer.
(§2) BALB/c nude mice, female, 6 to 8 weeks old, weighing about 18 to 22 g, were kept in a special pathogen-free environment and in separated ventilated cages (3 mice per cage). All cages, bedding and water were disinfected before use. All animals had free access to standard certified commercial laboratory diets. A total of 48 mice purchased from Shanghai BK Laboratory Animal Co., LTD were used for the study. Each mouse was inoculated subcutaneously in the right flank with tumor cells (10×10^6 cells in 0.2 mL of a phosphate buffer) for tumor growth. The administration was initiated when the average tumor volume reached about 110 cubic millimeters. The test compounds were orally administered daily at a dose of 30 mg/kg. Tumor volumes were measured with a two-dimensional caliper every 3 days. The volume was measured in cubic millimeters and calculated by the following formula: V=0.5 a×b^2, where a and b were the long and short diameters of a tumor, respectively. Anti-tumor efficacy was determined by dividing the average increase in tumor volume of animals treated with a compound by the average increase in tumor volume of untreated animals.

MDA-MB-231 cells = assay: In-vitro cell viability test (CellTiter-Glo, 7 days); type: cell-based; settings: Homo sapiens, 168 h, 7 days incubation
Protocol: RPMI 1640 medium (Invitrogen-22400089); fetal bovine serum (Invitrogen-10099141); Trypsin, 0.05% (1×) with EDTA 4Na (Invitrogen-25300062); luminescent cell viability assay kit (Promega-G7573); Dulbecco's phosphate buffered saline (HyClone-SH30028.01B); and 384-well plate (Corning-6007680). Envision Multi-label Analyzer.
1. 30 μL of MDA-MB-231 cell suspension, which contained 250 MDA-MB-231 cells, was added into the wells of a 384-microwell plate.
2. 20 μL of a test compound (the test compounds were formulated at a high concentration of 10 μM, the test compounds were subjected to a 5-fold gradient dilution, and each compound was diluted to 10 concentration gradients) was added, and then the cell plate was put back into a carbon dioxide incubator to be incubated for 7 days.
3. The cell plate was kept flat at room temperature for 30 minutes.
4. 20 μL of a Promega CellTiter-Glo reagent was added into each well of the cell plate.
5. After 10 minutes, the Envision Multi-label Analyzer was used for data reading.

[2] = tested on: MDA-MB-231 triple-negative breast cancer CDX; assay: In-vivo drug efficacy study 1, MDA-MB-231 CDX model; design: species or system BALB/c nude mice
Protocol: as §1
as §2, with “147” for “110”

CN[C@@H](C)C(=O)N[C@H](C(=O)N1CCC[C@H]1Cn1cc(C(C)=O)c2cc(Cl)ccc21)C1CCCCC1 [Example 2]
Tumor volume ([1]; Day 0, 30 mg/kg oral daily): 110 mm^3
Tumor volume ([1]; Day 5, 30 mg/kg oral daily): 111 mm^3
Tumor volume ([1]; Day 12, 30 mg/kg oral daily): 86 mm^3
Tumor volume ([1]; Day 20, 30 mg/kg oral daily): 177 mm^3
IC50 (MDA-MB-231 cells): 54.8 nM
Tumor volume ([2]; Day 0, 30 mg/kg oral daily): 147 mm^3
Tumor volume ([2]; Day 6, 30 mg/kg oral daily): 214 mm^3
Tumor volume ([2]; Day 13, 30 mg/kg oral daily): 282 mm^3
Tumor volume ([2]; Day 20, 30 mg/kg oral daily): 810 mm^3

Source: patent US11358950B2, “SMAC mimetics used as IAP inhibitors and use thereof” (CHIA TAI TIANQING PHARMACEUTICAL GROUP CO., LTD., priority 2017, dated 2022)
